One molecule from patent US11602518B2, “Lipidic furan, pyrrole, and thiophene compounds for use in the treatment of atrophic vaginitis” (Avoscience, LLC, priority 2016, dated 2023) can be followed below.

In the data set the test system is female subjects diagnosed with vaginal atrophy. Nature of the data set: Double blind placebo control study: tissue morphometry by vaginal biopsy after topical Formula I(n) capsules. Format: in vivo, human. The source says: The histology and morphometry of vaginal atrophy is characterized by a reduction in dermal and epidermal thickness, dermal collagen content (hydroxyproline), the number of cells in the tissue (by DNA content and histology), and dermal and epidermal protein content as well as reduction in overall dermal metabolism as measured by [^14 C]-glucose. These parameters are all increased by the action of topical administration of Formula I(n).
In a double blind placebo control study, a baseline tissue morphometry was determined by biopsy on 20 female subjects diagnosed with vaginal atrophy. Subjects applied a capsule daily containing either Formula I(n) (3%) and avocado oil or simply a capsule of avocado oil alone.

Setting [1] is: biopsy after 60 days, daily capsule 3% in avocado oil.
Setting [2] is: biopsy after 60 days, daily capsule 3% in avocado oil, over control.

With `CCCCC/C=C\C/C=C\CCCCCCCc1ccco1` [Formula I(n), 2-(8Z,11Z-heptadecadienyl)furan], the “increase in dermal thickness” value (biopsy after 60 days vs baseline, daily capsule 3% in avocado oil, control vehicle 7%) worked out at 53%. Also, the “increase in epidermal thickness” value (biopsy after 60 days vs baseline, daily capsule 3% in avocado oil, control vehicle 9%) is listed as 76%. Moreover, under setting [1], the “Dermal fibroblast population (cross section) increase” value was 231%; the “Dermal fibroblast population (number) increase” value is on record as 127%; the “increase in aerobic glucose utilization or metabolism” value is recorded as 413%; the “increase in total thickness (epidermal and dermal combined)” value is reported as 156%. In addition, under setting [2], the “DNA content increase over control” value is listed as 68%, the “Dermal collagen content increase over control” value stood at 74% and the “Protein content increase over control” value came out at 122%. Further, the inflammatory response result (biopsy after 60 days, daily topical capsule, Formula I(n) (3%) and avocado oil) is “No observable inflammatory response”. Moreover, the “dermal and epidermal thickness, dermal collagen content, number of cells, dermal and epidermal protein content, overall dermal metabolism” value (topical administration, summary statement) is on record as “increased”.
